Results as given in ChEMBL document CHEMBL1141845, “A new bistetrahydrofuran acetogenin from the roots of Annona salzmanii” (J Nat Prod, 1999).

Legend:
[1] = Cytotoxicity against african green monkey Vero cells; type: cell-based; details: chlorocebus sabaeus, read-out: ED50 (the source's name)
[2] = system: KB; assay: Cytotoxicity against human KB cells; type: functional

Row | SMILES | CC50 [1] [µg/mL] | ED50 [2] [×10⁻⁴ ug/ml]
1 | CCCCCC[C@H](O)CCC[C@H](O)[C@H]1CC[C@@H]([C@H]2CC[C@H]([C@H](O)CC[C@H](O)CCCCCCCCCC3=C[C@H](C)OC3=O)O2)O1 [SALZMANIN] | > 0.01 | 0.1
2 | CCCCCC[C@H](O)CCC[C@H](O)[C@H]1CC[C@H]([C@H]2CC[C@H]([C@H](O)CCCCCCCCCCCCC3=C[C@H](C)OC3=O)O2)O1 [SQUAMOCIN] |  | 4
3 | CC[C@]1(O)C[C@@H]2CN(CCc3c([nH]c4ccccc34)[C@@](C(=O)OC)(c3cc4c(cc3OC)N(C)[C@H]3[C@@](O)(C(=O)OC)[C@H](OC(C)=O)[C@]5(CC)C=CCN6CC[C@]43[C@@H]65)C2)C1 [VINBLASTINE] |  | 0.1
